Numbers after ± are expanded uncertainties.
How the values were obtained:
[1] = 101 kPa, Liquid
[2] = refractive index (Na D-line) (dimensionless); conditions: 101.33 kPa, Liquid
[3] = xn = mol fraction of the nth substance listed; conditions: 101 kPa, Liquid, x1 = 1

SMILES	mass density ([1]; 298.15 K) [kg/m3]	mass density ([1]; 303.15 K) [kg/m3]	mass density ([1]; 308.15 K) [kg/m3]	mass density ([1]; 313.15 K) [kg/m3]	mass density ([1]; 318.15 K) [kg/m3]	refractive index ([2]; 298.15 K)	refractive index ([2]; 303.15 K)	refractive index ([2]; 308.15 K)	refractive index ([2]; 313.15 K)	refractive index ([2]; 318.15 K)	mass density ([3]; 298.15 K) [kg/m3]	mass density ([3]; 303.15 K) [kg/m3]	mass density ([3]; 308.15 K) [kg/m3]	mass density ([3]; 313.15 K) [kg/m3]	mass density ([3]; 318.15 K) [kg/m3]
c1ccccc1 [benzene]	873.6 ± 2.5	870.8 ± 2.6	865.7 ± 2.7	861 ± 2.9	856.3 ± 3	1.4979 ± 0.0019	1.4962 ± 0.0019	1.4944 ± 0.0019	1.4929 ± 0.0019	1.4911 ± 0.0019	–	–	–	–	–
c1ccccc1 [benzene] + CCCCN(CCCC)CCCC	–	–	–	–	–	–	–	–	–	–	873.6 ± 2.5	870.8 ± 2.6	865.7 ± 2.7	861 ± 2.9	856.3 ± 3

The next lines start with the values.

mass density ([1]; 298.15 K) [kg/m3]	mass density ([1]; 303.15 K) [kg/m3]	mass density ([1]; 308.15 K) [kg/m3]	mass density ([1]; 313.15 K) [kg/m3]	mass density ([1]; 318.15 K) [kg/m3]	refractive index ([2]; 298.15 K)	refractive index ([2]; 303.15 K)	refractive index ([2]; 308.15 K)	refractive index ([2]; 313.15 K)	refractive index ([2]; 318.15 K)	mass density ([3]; 298.15 K) [kg/m3]	mass density ([3]; 303.15 K) [kg/m3]	mass density ([3]; 308.15 K) [kg/m3]	mass density ([3]; 313.15 K) [kg/m3]	mass density ([3]; 318.15 K) [kg/m3]	SMILES
–	–	–	–	–	–	–	–	–	–	873.6 ± 2.5	870.8 ± 2.6	865.7 ± 2.7	861 ± 2.9	856.3 ± 3	c1ccccc1 [benzene] + CCN(CC)CC
774.3 ± 2.1	770.8 ± 2.3	767.2 ± 2.4	763.6 ± 2.5	759.8 ± 2.6	1.4274 ± 0.0019	1.4259 ± 0.0019	1.4231 ± 0.0019	1.421 ± 0.0019	1.4188 ± 0.0019	–	–	–	–	–	CCCCN(CCCC)CCCC [tributylamine]
723.4 ± 1.9	717.9 ± 2.1	712.9 ± 2.2	708.3 ± 2.3	701.6 ± 2.4	1.4011 ± 0.0019	1.3983 ± 0.0019	1.395 ± 0.0019	1.3928 ± 0.0019	1.3898 ± 0.0019	–	–	–	–	–	CCN(CC)CC [triethylamine]
